Experimental data: patent US9340590B2 (priority 2011, dated 2016)
Positions of bridges follow the written chain, without caps; N, C: chain ends. Non-standard residues stand in square brackets, D forms with d. Residues, ends and D or L forms follow the SMILES beside them. *: point of attachment. Pent4ynoyl = C#CCCC(=O)*; Abu = CC[C@H](N)C(=O)O

Legend:
hNav1.5 = hNav1.5 (Homo sapiens, UniProt Q14524); experiment: cell-based
hNav1.7 = hNav1.7 (Homo sapiens, UniProt Q15858); experiment: cell-based; conditions: Nav1.7 Use IC50
hNav1.7, sequence (Q15858 whole entry, looked up): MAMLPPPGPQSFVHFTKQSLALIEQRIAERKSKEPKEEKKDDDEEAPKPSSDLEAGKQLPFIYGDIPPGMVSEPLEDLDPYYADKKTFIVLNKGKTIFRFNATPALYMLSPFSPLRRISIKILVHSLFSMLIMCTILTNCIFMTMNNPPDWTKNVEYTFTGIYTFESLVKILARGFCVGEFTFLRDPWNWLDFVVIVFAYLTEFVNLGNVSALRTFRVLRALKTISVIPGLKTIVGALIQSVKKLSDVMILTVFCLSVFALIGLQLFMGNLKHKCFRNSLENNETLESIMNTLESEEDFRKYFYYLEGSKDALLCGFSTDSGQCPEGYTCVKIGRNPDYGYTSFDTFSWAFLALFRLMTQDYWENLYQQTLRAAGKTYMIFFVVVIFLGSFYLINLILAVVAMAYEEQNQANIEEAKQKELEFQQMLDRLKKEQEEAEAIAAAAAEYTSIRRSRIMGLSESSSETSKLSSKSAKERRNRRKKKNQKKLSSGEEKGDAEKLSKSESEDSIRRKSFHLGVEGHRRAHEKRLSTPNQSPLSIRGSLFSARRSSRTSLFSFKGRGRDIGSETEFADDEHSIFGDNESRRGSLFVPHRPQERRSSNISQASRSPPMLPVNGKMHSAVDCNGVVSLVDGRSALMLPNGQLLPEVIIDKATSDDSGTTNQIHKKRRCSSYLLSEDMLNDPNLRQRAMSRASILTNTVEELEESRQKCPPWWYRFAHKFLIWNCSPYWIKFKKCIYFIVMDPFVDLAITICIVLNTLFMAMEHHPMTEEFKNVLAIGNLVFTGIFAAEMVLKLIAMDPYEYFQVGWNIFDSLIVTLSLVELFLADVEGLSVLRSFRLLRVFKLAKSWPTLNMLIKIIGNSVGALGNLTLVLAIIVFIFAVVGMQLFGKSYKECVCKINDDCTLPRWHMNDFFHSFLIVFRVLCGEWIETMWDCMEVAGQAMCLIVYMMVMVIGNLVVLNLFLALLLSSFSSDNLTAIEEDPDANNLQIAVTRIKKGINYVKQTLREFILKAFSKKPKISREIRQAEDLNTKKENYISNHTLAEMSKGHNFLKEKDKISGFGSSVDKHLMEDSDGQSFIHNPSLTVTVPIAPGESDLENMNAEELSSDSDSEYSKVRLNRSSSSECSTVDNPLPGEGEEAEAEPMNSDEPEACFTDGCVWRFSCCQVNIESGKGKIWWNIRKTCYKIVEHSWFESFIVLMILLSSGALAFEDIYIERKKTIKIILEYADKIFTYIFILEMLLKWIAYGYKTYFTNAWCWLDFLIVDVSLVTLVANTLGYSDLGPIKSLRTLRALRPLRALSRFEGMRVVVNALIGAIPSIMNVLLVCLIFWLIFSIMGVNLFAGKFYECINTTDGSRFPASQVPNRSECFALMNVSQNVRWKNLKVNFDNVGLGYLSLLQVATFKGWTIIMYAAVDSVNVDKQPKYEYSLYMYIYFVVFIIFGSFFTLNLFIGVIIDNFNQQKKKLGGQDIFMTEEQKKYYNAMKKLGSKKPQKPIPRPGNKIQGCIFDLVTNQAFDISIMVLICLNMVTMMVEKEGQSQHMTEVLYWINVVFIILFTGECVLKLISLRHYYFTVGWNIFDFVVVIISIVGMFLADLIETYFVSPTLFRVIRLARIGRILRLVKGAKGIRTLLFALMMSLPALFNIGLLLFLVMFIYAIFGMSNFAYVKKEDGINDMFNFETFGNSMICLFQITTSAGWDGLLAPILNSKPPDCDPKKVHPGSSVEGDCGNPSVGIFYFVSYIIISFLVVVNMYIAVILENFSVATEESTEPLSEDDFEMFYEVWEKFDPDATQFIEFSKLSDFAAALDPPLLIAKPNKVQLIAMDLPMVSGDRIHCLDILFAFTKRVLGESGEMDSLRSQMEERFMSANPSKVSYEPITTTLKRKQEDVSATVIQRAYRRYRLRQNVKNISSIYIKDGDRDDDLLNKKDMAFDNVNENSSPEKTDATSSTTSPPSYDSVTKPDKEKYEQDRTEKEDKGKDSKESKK

hNav1.5, sequence (Q14524 whole entry, looked up): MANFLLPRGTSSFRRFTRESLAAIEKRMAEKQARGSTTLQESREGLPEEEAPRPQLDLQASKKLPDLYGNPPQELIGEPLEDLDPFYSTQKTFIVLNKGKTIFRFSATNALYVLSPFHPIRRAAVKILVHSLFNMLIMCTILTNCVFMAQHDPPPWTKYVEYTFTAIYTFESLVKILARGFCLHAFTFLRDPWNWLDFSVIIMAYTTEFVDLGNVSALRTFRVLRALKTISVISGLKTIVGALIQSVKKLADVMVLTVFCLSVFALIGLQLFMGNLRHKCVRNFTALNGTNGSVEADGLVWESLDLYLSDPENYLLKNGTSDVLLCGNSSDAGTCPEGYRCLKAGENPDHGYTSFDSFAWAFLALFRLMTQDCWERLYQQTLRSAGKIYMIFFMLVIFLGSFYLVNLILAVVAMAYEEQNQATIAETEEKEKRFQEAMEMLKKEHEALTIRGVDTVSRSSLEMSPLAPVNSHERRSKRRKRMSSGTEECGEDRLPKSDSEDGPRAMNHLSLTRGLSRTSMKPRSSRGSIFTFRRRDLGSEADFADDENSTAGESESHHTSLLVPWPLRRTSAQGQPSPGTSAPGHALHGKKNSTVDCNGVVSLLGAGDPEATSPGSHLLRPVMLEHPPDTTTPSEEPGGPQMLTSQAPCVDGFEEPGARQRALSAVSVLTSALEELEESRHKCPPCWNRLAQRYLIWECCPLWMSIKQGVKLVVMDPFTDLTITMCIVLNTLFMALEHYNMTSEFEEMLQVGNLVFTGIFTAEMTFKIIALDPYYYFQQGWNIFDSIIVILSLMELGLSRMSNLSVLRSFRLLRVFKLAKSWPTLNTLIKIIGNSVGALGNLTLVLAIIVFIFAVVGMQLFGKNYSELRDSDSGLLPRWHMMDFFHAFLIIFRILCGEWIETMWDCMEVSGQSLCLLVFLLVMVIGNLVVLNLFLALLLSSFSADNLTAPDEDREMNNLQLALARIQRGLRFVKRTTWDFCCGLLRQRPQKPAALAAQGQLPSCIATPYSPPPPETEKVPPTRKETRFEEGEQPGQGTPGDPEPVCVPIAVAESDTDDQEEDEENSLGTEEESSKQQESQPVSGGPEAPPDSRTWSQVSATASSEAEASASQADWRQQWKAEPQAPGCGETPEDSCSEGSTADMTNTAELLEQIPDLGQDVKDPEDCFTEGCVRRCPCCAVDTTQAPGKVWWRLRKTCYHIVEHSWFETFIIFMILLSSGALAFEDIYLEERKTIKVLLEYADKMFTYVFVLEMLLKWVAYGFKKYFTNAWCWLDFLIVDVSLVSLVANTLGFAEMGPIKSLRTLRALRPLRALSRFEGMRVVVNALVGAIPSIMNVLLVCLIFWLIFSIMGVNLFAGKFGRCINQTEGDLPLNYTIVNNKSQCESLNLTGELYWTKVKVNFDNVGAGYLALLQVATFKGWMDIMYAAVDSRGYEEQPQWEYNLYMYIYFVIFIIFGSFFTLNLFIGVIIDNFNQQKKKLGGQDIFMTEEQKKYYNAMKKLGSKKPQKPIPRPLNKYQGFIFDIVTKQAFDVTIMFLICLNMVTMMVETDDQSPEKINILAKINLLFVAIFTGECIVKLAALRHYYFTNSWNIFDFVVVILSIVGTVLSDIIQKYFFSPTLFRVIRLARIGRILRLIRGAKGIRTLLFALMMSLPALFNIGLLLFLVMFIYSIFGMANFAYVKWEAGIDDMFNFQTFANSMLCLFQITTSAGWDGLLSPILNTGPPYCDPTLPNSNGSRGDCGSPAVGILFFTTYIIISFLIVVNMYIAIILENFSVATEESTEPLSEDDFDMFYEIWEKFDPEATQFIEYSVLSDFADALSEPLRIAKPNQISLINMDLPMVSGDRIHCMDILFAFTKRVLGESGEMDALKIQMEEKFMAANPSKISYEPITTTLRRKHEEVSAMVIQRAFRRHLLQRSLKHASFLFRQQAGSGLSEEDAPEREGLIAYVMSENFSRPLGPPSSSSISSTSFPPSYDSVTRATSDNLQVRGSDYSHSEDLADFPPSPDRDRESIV

| Compound | IC50 (hNav1.5) | IC50 (hNav1.7) |
| --- | --- | --- |
| C#CCCC(=O)N[C@@H](CC(=O)O)C(=O)N[C@H]1CSSC[C@@H]2NC(=O)[C@@H]3CSSC[C@@H](C(=O)N[C@@H](CCCCN)C(=O)N[C@@H](Cc4ccc(O)cc4)C(=O)N[C@H](C(=O)N[C@@H](Cc4ccccc4)C(N)=O)C(C)C)NC(=O)[C@H](Cc4c[nH]c5ccccc45)NC(=O)[C@H](CCCNC(=N)N)NC(=O)[C@H](Cc4c[nH]cn4)NC(=O)[C@H]([C@@H](C)O)NC(=O)[C@H](CCCNC(=N)N)NC(=O)[C@H](CO)NC(=O)[C@H](CSSC[C@H](NC(=O)[C@H](CCCCN)NC(=O)[C@H](CCCNC(=N)N)NC(=O)[C@H](CC(C)C)NC(=O)[C@H](CC)NC(=O)CNC(=O)[C@H](CC(C)C)NC1=O)C(=O)N[C@@H]([C@@H](C)CC)C(=O)N1CCC[C@H]1C(=O)N[C@@H](CC(=O)O)C(=O)N[C@@H](CC)C(=O)N[C@@H](CC(=O)O)C(=O)N[C@@H](CCCCN)C(=O)N3)NC(=O)[C@H](C(C)C)NC(=O)[C@H](CC(C)C)NC(=O)[C@H](CC(N)=O)NC(=O)[C@@H]1CCCN1C(=O)[C@H](CCCNC(=N)N)NC2=O [4-Pen-[2-Abu5,13;Leu6;Arg28]GpTx-1(1-34)] (Pent4ynoyl-DCLG[Abu]LRKCIPD[Abu]DKCCRPNLVCSRTHRWCKYVF-NH2; disulfide 2-17, 9-23, 16-30) | > 10000 nM | 3 nM |
| CC[C@H](C)[C@@H]1NC(=O)[C@@H]2CSSC[C@@H]3NC(=O)[C@H](C(C)C)NC(=O)[C@H](CC(C)C)NC(=O)[C@H](CC(N)=O)NC(=O)[C@@H]4CCCN4C(=O)[C@H](CCCNC(=N)N)NC(=O)[C@H](CSSC[C@H](NC(=O)[C@@H](N)CC(=O)O)C(=O)N[C@@H](CC(C)C)C(=O)NCC(=O)N[C@@H](C)C(=O)N[C@@H](Cc4ccccc4)C(=O)N[C@@H](CCCNC(=N)N)C(=O)N[C@@H](CCCCN)C(=O)N2)NC(=O)[C@H](CSSC[C@@H](C(=O)N[C@@H](CCCCN)C(=O)N[C@@H](Cc2ccc(O)cc2)C(=O)N[C@H](C(=O)N[C@@H](Cc2ccccc2)C(=O)N[C@@H](Cc2ccccc2)C(=O)O)C(C)C)NC(=O)[C@H](Cc2c[nH]c4ccccc24)NC(=O)[C@H](CCCNC(=N)N)NC(=O)[C@H](Cc2c[nH]cn2)NC(=O)[C@H]([C@@H](C)O)NC(=O)[C@H](CCCNC(=N)N)NC(=O)[C@H](CO)NC3=O)NC(=O)[C@H](CCCCN)NC(=O)[C@H](CC(=O)O)NC(=O)[C@H](CC(N)=O)NC(=O)[C@H](CC(=O)O)NC(=O)[C@@H]2CCCN2C1=O [Ala5;Phe6;Arg28]GpTx-1(1-34)-Phe-] (H-DCLGAFRKCIPDNDKCCRPNLVCSRTHRWCKYVFF-OH; disulfide 2-17, 9-23, 16-30) | > 10000 nM | 116 nM |
| CC[C@H](C)[C@@H]1NC(=O)[C@@H]2CSSC[C@@H]3NC(=O)[C@H](C(C)C)NC(=O)[C@H](CC(C)C)NC(=O)[C@H](CC(N)=O)NC(=O)[C@@H]4CCCN4C(=O)[C@H](CCCNC(=N)N)NC(=O)[C@H](CSSC[C@H](NC(=O)[C@@H](N)CC(=O)O)C(=O)N[C@@H](CC(C)C)C(=O)NCC(=O)N[C@@H](Cc4ccccc4)C(=O)N[C@@H](CCSC)C(=O)N[C@@H](CCCNC(=N)N)C(=O)N[C@@H](CCCCN)C(=O)N2)NC(=O)[C@H](CSSC[C@@H](C(=O)N[C@@H](CCCCN)C(=O)N[C@@H](Cc2ccc(O)cc2)C(=O)N[C@H](C(=O)N[C@@H](Cc2ccccc2)C(=O)N[C@@H](Cc2ccccn2)C(N)=O)C(C)C)NC(=O)[C@H](Cc2c[nH]c4ccccc24)NC(=O)[C@H](CCCCN)NC(=O)[C@H](Cc2c[nH]cn2)NC(=O)[C@H]([C@@H](C)O)NC(=O)[C@H](CCCNC(=N)N)NC(=O)[C@H](CO)NC3=O)NC(=O)[C@H](CCCCN)NC(=O)[C@H](CC(=O)O)NC(=O)[C@H](CC(N)=O)NC(=O)[C@H](CC(=O)O)NC(=O)[C@@H]2CCCN2C1=O [GpTx-1(1-34)-2PAL] | > 10000 nM | 27 nM |
